From patent publication US11866416B2, “Streptococcus mutans glucosyl transferase inhibitors for dental caries therapy” (UAB Research Foundation, priority 2018, dated 2024)
In brackets after ≈: the same amount, converted by molar mass. Read-outs that look alike come from different tables or passages of the source.

Experiments:
S. mutans biofilm = S. mutans biofilm formation and inhibition assay (96-well plates, crystal violet); format: cell-based, Streptococcus mutans; conditions: Streptococcus mutans
Method: Biofilm assays using 96-well flat-bottom polystyrene microtiter plates were performed to evaluate S. mutans biofilm formation at various conditions as described (Liu et al. (2011) Antimicrobial Agents and Chemotherapy 55, 2679; Zhang et al. (2015) International Journal of Antimicrobial Agents 46, 174), the disclosures of which are incorporated herein by reference in their entirety). Each assay was replicated three times. Compounds that inhibited biofilm formation at minimum concentration (MBIC) were determined by serial dilutions.
S. mutans biofilm formation and inhibition assays. […] Each assay was replicated three times. Minimum biofilm inhibitory concentration (MBIC) of compounds was determined by serial dilutions.
S. mutans biofilm formation and inhibition assays. Biofilm assays using 96-well flat-bottom polystyrene microtiter plates were performed to evaluate S. mutans biofilm formation at various conditions as described. Each assay was replicated […]. Compounds that inhibited 50% biofilm formation were determined by serial dilutions.
S. mutans biofilm formation and inhibition assays. A well-established protocol to study S. mutans biofilm formation in 96-well flat-bottom polystyrene microtiter plates was used, in triplicate (Mattos-Graner, R. O.; Napimoga, M. H.; Fukushima, K.; Duncan, M. J.; Smith, D. J., Comparative analysis of Gtf isozyme production and diversity in isolates of Streptococcus mutans with different biofilm growth phenotypes. Journal of clinical microbiology 2004, 42 (10), 4586-4592). The stock solutions were made up in 100% DMSO, and final concentration of DMSO used in the assays was 1%. Minimum biofilm inhibitory concentration (MBIC) of compounds was determined by serial dilutions.

S. mutans = test: microbe, parasite or virus in culture; format: cell-based, Streptococcus mutans; conditions: for Selectivity: growth versus biofilm
Method: Cell viability of S. mutans, S. gordonii, S. sanguinis, Aggregatibacter actinomycetemcomitans and Actinomyces. […] The number of colony-forming units (CFU) per milliliter of each sample treated with selected compounds at different concentrations was enumerated after incubation for 24 h at 37° C. and compared to the values obtained from the DMSO control group. Overnight broth cultures were transferred by 1:50 dilutions into fresh THB medium and were allowed to grow until mid-exponential phase (OD470 nm 0.6) before transfer to 96-well plates containing desired concentration of the compound. After 16 h incubation, bacterial growth was measured at OD470, and normalized to the DMSO control (100%).
Cell viability of S. mutans and commensal S. gordonii and S. sanguinis. Effects of lead small molecules on cell viability were examined. The number of colony-forming units (CFU) per milliliter for each compound at different concentrations was determined after incubation for 24 h at 37° C. and compared to the values obtained from the DMSO control group.
Cell viability of S. mutans and commensal S. gordonii and S. sanguinis. […] DMSO served as a control group and provided a relative comparison for the number of colony-forming units (CFU) per milliliter for each compound at different concentrations was determined after incubation for 24 h at 37° C. The final concentration of DMSO used in the assays was 1%.

[1] = Table 2, read-out: Biofilm Inhibition IC50
[2] = Streptococcus mutans, Table 2, >300 = no inhibition up to 300 μM, read-out: Growth Inhibition MIC50
[3] = Table 4, stilbenes, NI = no inhibition, read-out: Biofilm IC50
[4] = Table 8, stilbenes, NI = no inhibition, read-out: Biofilm IC50
[5] = Streptococcus mutans, Table 4, stilbenes, average of at least 5 measurements, NI = no inhibition, read-out: Growth MIC50
[6] = Table 8, stilbenes, average of at least 5 measurements, NI = no inhibition
[7] = Table 3, read-out: Biofilm Inhibition IC50
[8] = Streptococcus mutans, Table 3, >300 = no inhibition up to 300 μM, NI = no inhibition up to 400 μM, read-out: Growth Inhibition MIC50

| IC50 (S. mutans biofilm; [1]) | MIC50 (S. mutans; [2]) | IC50 (S. mutans biofilm; [3]) | IC50 (S. mutans biofilm; [4]) | MIC50 (S. mutans; [5]) | IC50 (S. mutans biofilm; [7]) | MIC50 (S. mutans; [8]) | Compound | other results |
| --- | --- | --- | --- | --- | --- | --- | --- | --- |
| – | – | 104 ± 6 µM | 104 ± 6 µM | > 400 µM | – | – | C[n+]1ccc(/C=C/c2ccc(O)c(O)c2)c2ccccc21 [Entry 11] | Selectivity (S. mutans; Table 4, stilbenes): 4.0; MIC50 (S. mutans; Table 8, stilbenes, average of at least 5 measurements, NI = no inhibition, read-out: Growth MIC50): >400 µM; Selectivity (S. mutans; Table 8, stilbenes): 4.0 |
| – | – | 106 ± 11 µM | 106 ± 11 µM | 134 ± 11 µM (≈ 56.3 µg/mL) | – | – | COc1ccc(/C=C/c2cc(O)cc(O[C@@H]3O[C@H](CO)[C@@H](O)[C@H](O)[C@H]3O)c2)cc1O [Entry 12] | Selectivity (S. mutans; Table 4, stilbenes): 1.2; Growth MIC50 (S. mutans; [6]): 134 ± 11 µM; Selectivity (S. mutans; Table 8, stilbenes): 1.2 |
| 65.1 µM | > 300 µM | – | – | – | – | – | NC(=O)c1ccccc1NC(=O)c1ccc2ncoc2c1 [HW-1-179] | – |
| – | – | – | – | – | 8.4 ± 1 µM | 37.1 ± 6 µM (≈ 10.5 µg/mL) | COc1ccc(/C=C2\Oc3ccccc3C2=O)cc1OC [LC-I-197] | – |
| – | – | – | – | – | 40.6 ± 3 µM | > 300 µM | COc1ccc(/C=C2\Oc3ccccc3C2=O)c(OC)c1 [LC-I-203] | – |
| – | – | – | – | – | 8.3 ± 1 µM | > 300 µM | COc1cc(OC)c(OC)cc1/C=C1\Oc2ccccc2C1=O [LC-I-205] | – |
| – | – | – | – | – | 320 ± 21 µM | > 300 µM | O=C1/C(=C/c2ccccc2)Oc2ccccc21 [LC-I-206] | – |
| – | – | – | – | – | 64 ± 7 µM | 534 ± 17 µM (≈ 154 µg/mL) | O=C(/C=C/c1ccc(O)c(O)c1)c1ccc(O)c(O)c1O [Okanin (natural), Okanin] | – |
| – | – | – | – | – | 61.2 ± 2.3 µM | 274 ± 45.8 µM | COc1cc(-c2[o+]c3cc(O)cc(O)c3cc2O)cc(O)c1O [PAC] | – |
| – | – | – | – | – | 135 ± 5.6 µM | 262 ± 21 µM | Oc1cc(O)c2cc(O)c(-c3cc(O)c(O)c(O)c3)[o+]c2c1 [PBF] | – |
| 12.8 µM | > 300 µM | – | – | – | – | – | CN(C)c1ncc(/C=C/C(=O)Nc2ccccc2C(N)=O)cn1 [SN-I-271S] | – |
| 36.1 µM | > 300 µM | – | – | – | – | – | NC(=O)c1ccccc1NC(=O)c1ccc2ncsc2c1 [SN-I-271U] | – |
| 15.6 µM | > 300 µM | – | – | – | – | – | O=C(O)c1ccc(NC(=O)c2cc3cc([N+](=O)[O-])ccc3s2)cc1 [SN-I-272OH] | – |

Further lines, the compound ahead of its results:

| Compound | IC50 (S. mutans biofilm; [1]) | MIC50 (S. mutans; [2]) | IC50 (S. mutans biofilm; [3]) | IC50 (S. mutans biofilm; [4]) | MIC50 (S. mutans; [5]) | IC50 (S. mutans biofilm; [7]) | MIC50 (S. mutans; [8]) | other results |
| --- | --- | --- | --- | --- | --- | --- | --- | --- |
| COC(=O)c1ccc(NC(=O)c2ccc3ccccc3n2)cc1 [Compound 298G6] | 106 µM | > 300 µM | – | – | – | – | – | – |
| NC(=O)c1ccccc1OC(=O)c1ccc2ccccc2n1 [Compound 298G7] | 105 µM | > 300 µM | – | – | – | – | – | – |
| NC(=O)c1cccc(NC(=O)c2cc3cc([N+](=O)[O-])ccc3[nH]2)c1 [Compound 298b2] | 138 µM | > 300 µM | – | – | – | – | – | – |
| Oc1ccc(/C=C/c2ccc(O)cc2)cc1 [Entry 4] | – | – | 344 ± 17 µM | 344 ± 17 µM | 854 ± 58 µM (≈ 181 µg/mL) | – | – | Selectivity (S. mutans; Table 4, stilbenes): 2.4; Growth MIC50 (S. mutans; [6]): 854 ± 58 µM; Selectivity (S. mutans; Table 8, stilbenes): 2.4 |
| N=C(N)c1ccc(/C=C/c2ccc(C(=N)N)cc2O)cc1 [Entry 5] | – | – | 104 ± 7 µM | 104 ± 7 µM | 179 ± 23 µM (≈ 50.2 µg/mL) | – | – | Growth MIC50 (S. mutans; [6]): 179 ± 23 µM |
| COc1cc(O)cc(/C=C/c2ccccc2)c1 [Entry 6] | – | – | 477 ± 51 µM | 477 ± 51 µM | 546 ± 25 µM (≈ 124 µg/mL) | – | – | Selectivity (S. mutans; Table 4, stilbenes): 1.1; Growth MIC50 (S. mutans; [6]): 546 ± 25 µM; Selectivity (S. mutans; Table 8, stilbenes): 1.1 |
| COc1cc(/C=C/c2ccc(OC)c(O)c2)cc(OC)c1 [Entry 9] | – | – | 122 ± 11 µM | 122 ± 11 µM | 137 ± 6 µM (≈ 39.2 µg/mL) | – | – | Selectivity (S. mutans; Table 4, stilbenes): 1.1; Growth MIC50 (S. mutans; [6]): 137 ± 6 µM; Selectivity (S. mutans; Table 8, stilbenes): 1.1 |
| O=C(/C=C/c1ccc(O)c(O)c1)O[C@@H]1C[C@](O)(C(=O)O)C[C@@H](O)[C@H]1O [Entry 10] | – | – | 518 ± 85 µM | 518 ± 85 µM | 1720 ± 53 µM (≈ 611 µg/mL) | – | – | Selectivity (S. mutans; Table 4, stilbenes): 3.3; Growth MIC50 (S. mutans; [6]): 1724 ± 53 µM; Selectivity (S. mutans; Table 8, stilbenes): 3.3 |
| O=C(/C=C/c1ccc(O)cc1O)c1cccc(O)c1 [RZ-1-86] | – | – | – | – | – | 32 ± 5 µM | 469 ± 16 µM (≈ 120 µg/mL) | – |
| O=C(/C=C/c1ccc(O)c(O)c1)c1ccccc1O [RZ-1-90] | – | – | – | – | – | 356 ± 14 µM | > 300 µM | – |
